The nature of this data set: in vivo. The following applies: Sprague-Dawley, rat, po, 4 mg/kg.

Compound `CC(C)(C#N)[C@H]1OC2(CCN(C(=O)[C@@H]3CN(C4CCOCC4)C[C@H]3c3ccc(F)cc3F)CC2)c2cc(F)c(Cl)cc21` came in with a bioavailability of 23%. In turn, `CC(=O)NC(C)(C)[C@H]1OC2(CCN(C(=O)[C@@H]3CN(C4CCOCC4)C[C@H]3c3ccc(F)cc3F)CC2)c2cc(Cl)c(C)cc21` registered a bioavailability of 26%.

For the origin of these results see ChEMBL document CHEMBL1208763, “Discovery of potent, selective, and orally bioavailable 3H-spiro[isobenzofuran-1,4'-piperidine] based melanocortin subtype-4 receptor agonists” (Bioorg Med Chem Lett, 2010).
